This is an account of results in patent publication US20240091317A1, “USE OF GLP-2 ANALOGUES IN PATIENTS WITH RENAL INSUFFICIENCY” (Zealand Pharma A/S, priority 2020, published 2024).

For data set [1] the following is noted: in vivo; cited from earlier work.
For data set [2] the following is noted: in particular moderate or severe renal impairment, or ESRD; cited from earlier work.
The nature of data set [3]: Phase 1 trial: PK of a single subcutaneous dose of 10 mg glepaglutide in subjects with severe renal impairment/ESRD vs normal renal function. The data set is classed as in vivo, human. As for the experimental part:
The study was designed as a two-stage design, open-label, multi-center, non-randomized trial evaluating the PK of a single, subcutaneous dose of 10 mg glepaglutide in subjects with varying degrees of renal function. The renal function was calculated by the estimated glomerular filtration rate (eGFR) according to the Modification of Diet in Renal Disease (MDRD) equation.
Sixteen Caucasian subjects were enrolled, 4 with end stage renal disease (ESRD) not on dialysis (eGFR<15 mL/min), 4 with severe renal impairment (eGFR<30 mL/min) and 8 matching controls with normal renal function (eGFR>90 mL/min) (Table 1). Demographics, except eGFR, was similar across groups (Table 1).
Glepaglutide (ZP1848, 10 mg) was provided in a single-use vial containing 1 mL (an extractable volume of 0.5 mL) of a clear, colourless solution for subcutaneous injection, with a concentration of 20 mg/mL glepaglutide.
PK-blood samples were collected over a 14 day period following a single dose of 10 mg glepaglutide in the abdomen. The PK-samples were analyzed for glepaglutide, ZP2469 and ZP2711 using a GLP-validated LC/MS/MS assay.
The primary PK parameters were area under the curve between dose and last measurable concentration (AUCt), extrapolated to infinity (AUCinf) and calculated from 0 to 168 hours (AUC0-168) and the maximum plasma concentration (Cmax), which were computed for glepaglutide, ZP2469, ZP2711. A constructed analyte “glepaglutide-total” (glepaglutide+ZP2469+ZP2711) was used for the primary endpoint, and analysed using a non-compartmental approach.

“GLP-2 [3-33]: truncated GLP-2 [3-33] (DGSFSDEMNTILDNLAARDFINWLIQTKITD; Glucagon-like peptide 2; UniProt P01275 148-178, looked up, fragment)”: the Half-life in humans in data set [1] was 27 min.

Take “Hy-His-Ala-Asp-Gly-Ser-Phe-Ser-Asp-Glu-Met-Asn-Thr-Ile-Leu-Asp-Asn-Leu-Ala-Ala-Arg-Asp-Phe-Ile-Asn-Trp-Leu-Ile-Gln-Thr-Lys-Ile-Thr-Asp-OH [GLP-2 [1-33]]”: in data set [1], the Half-life in humans result is reported as “around 7 minutes”.

Take `CC[C@H](C)[C@H](NC(=O)[C@H](Cc1ccccc1)NC(=O)[C@H](CC(=O)O)NC(=O)[C@H](CCCNC(=N)N)NC(=O)[C@H](C)NC(=O)[C@H](C)NC(=O)[C@H](CC(C)C)NC(=O)[C@H](CC(N)=O)NC(=O)[C@H](CC(=O)O)NC(=O)[C@H](CC(C)C)NC(=O)[C@@H](NC(=O)[C@@H](NC(=O)[C@H](CC(N)=O)NC(=O)[C@H](CCSC)NC(=O)[C@H](CCC(=O)O)NC(=O)[C@H](CC(=O)O)NC(=O)[C@H](CO)NC(=O)[C@H](Cc1ccccc1)NC(=O)[C@H](CO)NC(=O)CNC(=O)[C@H](CC(=O)O)NC(=O)CNC(=O)[C@@H](N)Cc1c[nH]cn1)[C@@H](C)O)[C@@H](C)CC)C(=O)N[C@@H](CC(N)=O)C(=O)N[C@@H](Cc1c[nH]c2ccccc12)C(=O)N[C@@H](CC(C)C)C(=O)N[C@H](C(=O)N[C@@H](CCC(N)=O)C(=O)N[C@H](C(=O)N[C@@H](CCCCN)C(=O)N[C@H](C(=O)N[C@H](C(=O)N[C@@H](CC(=O)O)C(=O)O)[C@@H](C)O)[C@@H](C)CC)[C@@H](C)O)[C@@H](C)CC` [teduglutide]: the “Clearance in subjects with renal dysfunction” value in data set [2] is on record as “impaired”.

Turning to “H-HGEGTFSSELATILDALAARDFIAWLIATKITDKKKKKK-NH2 [ZP1848]”, in data set [3] (human, in vivo), the “Clearance in patients with renal impairment” value is “cleared normally”. Also, in data set [3] (single SC dose), the “Difference in total exposure (AUC0-168h) and peak plasma concentrations (Cmax), severe renal impairment/ESRD vs normal renal function” value is listed as “no clinically relevant difference”. The “Difference in primary PK parameters (AUCt, AUCinf, AUC0-168, Cmax), severe renal impairment and ESRD vs healthy matched subjects” value in data set [3] (single SC dose 10 mg glepaglutide) is “no statistically significant differences”.
